Assay results published in ChEMBL document CHEMBL1201862, “PubChem BioAssay data set” (2004).
Active and inactive are the calls of the source. Cut-off read from the data, not from the text of the source, for most assays here: actives have a measured EC50 and inactives only a lower limit.

Legend:
[1] = target: T1, Ubiquitin-conjugating enzyme E2 N (Homo sapiens, UniProt P61088); type: functional;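 note: Dose-response confirmation in a TR-FRET assay detecting UBC13-driven polyubiquitin chain formation, inhibition measured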
T1 sequence (P61088 whole entry): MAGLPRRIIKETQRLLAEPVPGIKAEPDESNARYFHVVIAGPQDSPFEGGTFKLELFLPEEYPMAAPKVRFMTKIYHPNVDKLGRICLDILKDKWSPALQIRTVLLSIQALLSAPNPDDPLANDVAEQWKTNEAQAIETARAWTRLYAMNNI

[2] = target: T2, RNA-binding protein pos-1 (Caenorhabditis elegans, UniProt G5EF15); experiment: inhibitors of POS-1/mex-3 RNA binding, dose response, biochemical, fluorescence polarization (AID 1964);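 note: purified POS-1 fused to maltose binding protein made in E. coli; potency of compounds blocking POS-1 binding to fluorescent RNA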
T2 sequence (G5EF15 whole entry): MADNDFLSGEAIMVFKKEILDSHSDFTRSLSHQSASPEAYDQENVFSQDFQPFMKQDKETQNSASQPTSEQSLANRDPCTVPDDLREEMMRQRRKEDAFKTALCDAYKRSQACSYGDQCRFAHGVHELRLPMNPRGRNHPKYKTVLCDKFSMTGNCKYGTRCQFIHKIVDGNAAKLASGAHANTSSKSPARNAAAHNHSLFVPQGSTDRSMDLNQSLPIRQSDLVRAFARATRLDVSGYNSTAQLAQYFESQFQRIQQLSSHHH

[3] = target: T3, Zinc finger protein mex-5 (Caenorhabditis elegans, UniProt Q9XUB2); experiment: MEX-5/TCR-2 RNA interaction inhibitors, dose response, biochemical, C. elegans, fluorescence polarization (AID 1960)
T3 sequence (Q9XUB2 whole entry): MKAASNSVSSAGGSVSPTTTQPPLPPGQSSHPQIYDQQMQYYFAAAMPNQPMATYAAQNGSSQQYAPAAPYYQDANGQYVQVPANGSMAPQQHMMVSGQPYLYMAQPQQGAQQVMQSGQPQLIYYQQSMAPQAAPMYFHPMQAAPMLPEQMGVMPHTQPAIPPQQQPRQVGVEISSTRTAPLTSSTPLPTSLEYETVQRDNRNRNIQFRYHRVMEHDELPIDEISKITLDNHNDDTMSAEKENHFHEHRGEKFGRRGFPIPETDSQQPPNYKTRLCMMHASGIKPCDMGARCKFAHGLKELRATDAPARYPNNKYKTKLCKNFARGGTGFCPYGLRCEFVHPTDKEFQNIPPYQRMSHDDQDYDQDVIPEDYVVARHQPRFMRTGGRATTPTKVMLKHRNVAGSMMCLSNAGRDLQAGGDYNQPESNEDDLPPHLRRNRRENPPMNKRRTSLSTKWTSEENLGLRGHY

[4] = target: T4, Corticotropin-releasing factor receptor 2/Corticotropin-releasing factor-binding protein (Homo sapiens, UniProt P24387+Q13324); experiment: activators of CRF receptor 2 with binding protein – uHTS hits, confirmation (AID 602473); type: functional; conditions: read-out: EC50_Mean
T4 sequence (Q13324 whole entry): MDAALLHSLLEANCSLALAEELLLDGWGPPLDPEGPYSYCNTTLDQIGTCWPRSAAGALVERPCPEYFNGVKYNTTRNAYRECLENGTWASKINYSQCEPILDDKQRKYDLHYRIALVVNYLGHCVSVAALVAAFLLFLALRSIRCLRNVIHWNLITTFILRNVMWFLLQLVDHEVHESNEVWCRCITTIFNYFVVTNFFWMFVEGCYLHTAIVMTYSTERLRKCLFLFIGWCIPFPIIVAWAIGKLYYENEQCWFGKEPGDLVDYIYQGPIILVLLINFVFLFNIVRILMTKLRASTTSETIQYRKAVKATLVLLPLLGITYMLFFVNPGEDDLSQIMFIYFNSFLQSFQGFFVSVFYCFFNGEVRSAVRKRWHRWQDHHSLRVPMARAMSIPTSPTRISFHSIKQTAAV
T4 sequence (P24387 whole entry): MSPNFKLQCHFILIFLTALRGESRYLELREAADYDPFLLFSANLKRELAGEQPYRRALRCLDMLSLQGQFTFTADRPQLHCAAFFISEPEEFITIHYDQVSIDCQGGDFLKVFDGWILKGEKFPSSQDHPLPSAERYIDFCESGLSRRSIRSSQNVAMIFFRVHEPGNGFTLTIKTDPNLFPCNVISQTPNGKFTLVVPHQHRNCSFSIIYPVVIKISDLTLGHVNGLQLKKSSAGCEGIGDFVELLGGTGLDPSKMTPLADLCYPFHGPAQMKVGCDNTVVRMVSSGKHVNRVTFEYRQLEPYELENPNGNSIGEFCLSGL

BJ [5] = experiment: cytotoxicity toward BJ-TERT fibroblasts, dose response, cell-based, RAS-independent, luminescence (AID 1933); type: functional; conditions: Homo sapiens
BJ [6] = experiment: cells; type: functional, cell-based; conditions: Homo sapiens
BJ [7] = experiment: cytotoxicity toward BJ-TERT-LT-ST fibroblasts, dose response, cell-based, RAS-independent, luminescence (AID 1935); type: functional; conditions: Homo sapiens;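 note: BJ fibroblasts immortalized with TERT plus LT and ST oncogenes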
[8] = cytotoxicity toward DRD oncogenic fibroblasts, dose response, cell-based, non-viral oncogenic, luminescence (AID 1934); type: functional; conditions: Homo sapiens
[9] = Luminescence Cell-Based Dose Retest to Confirm Inhibitors of Cancer Stem Cells. [Related pubchem assays (depositor defined):AID2717, AID2721]; type: functional; conditions: Homo sapiens
INS1 = experiment: beta cell apoptosis inhibitors, cytokine rescue, dose response, luminescence, retest (AID 449756); type: functional, cell-based; conditions: Rattus norvegicus;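 note: cell death triggered by IL-1 beta plus TNF-alpha plus IFN-gamma mixture; protective hits raise ATP signal compared with cytokine alone wells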
[10] = growth suppression of PTEN-null colon cells, dose response, cell-based, HCT116 PTEN knockout (AID 1047); type: functional;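 note: HCT116 colon tumor cells with PTEN knocked out; cells exposed to compound for 60 hours before readout; potency for loss of cell viability measured by luminescence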
[11] = growth suppression of beta-catenin-knockout colon cells, dose response, cell-based, HCT116, human colon tumor (AID 1045); type: functional;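 note: HCT116 colon tumor cells with beta catenin knocked out; cells exposed to compound for 60 hours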
[12] = Luminescence Cell-Based Dose Response HTS to Identify Activators of Luciferase Translation or Activity in H4 […] Cells. [Related pubchem assays: 1829 (Project Summary), 1814 (Primary HTS)]; type: functional
H4 = experiment: Luminescence Cell-Based Dose Response HTS to Identify Activators of 5'UTR Stem-Loop Driven Prion Protein mRNA Translation in H4 Neuroglioblastoma Cells. [Related pubchem assays: 1829 (Project Summary), 1814 (Primary HTS)]; type: functional; conditions: Homo sapiens
cells = type: functional
[13] = inhibitors of clade B AD8 Env fusion, dose response, cell-based, cherry-pick (AID 652062); type: functional;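 note: luciferase signal from cell-cell fusion driven by HIV-1 clade B AD8 Env; potency is for inhibitors of fusion seen as a drop in luminescence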
[14] = HEp-2 cell cytotoxicity, dose response, cytotoxicity control for RSV inhibitor project, HTS (AID 2410); type: functional; conditions: human respiratory syncytial virus
[15] = tested on: Streptococcus sp. 'group A'; experiment: growth inhibition of control SK(-) GAS strain, dose response, counter-screen for streptokinase expression inhibitor project, luminescence, kanamycin, BacTiterGlo, confirmation (AID 1900); type: functional, organism-based
[16] = inhibitors of intracellular T. cruzi replication, confirmation, NIH3T3 host cells, beta-gal luminescence (AID 2044); type: functional, cell-based;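 note: intracellular parasites grown in NIH/3T3 mouse fibroblasts as host cells; luminescent beta-galactosidase reporter signal from transgenic T. cruzi replicating inside host cells; inhibitors lower the luminescence signal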
[17] = cytotoxicity toward NIH3T3 fibroblasts, dose response, counter-screen, cell-based, ATP luminescence, mouse fibroblasts (AID 2010); type: functional;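 note: cells exposed to compound for about 90 hours before reading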
Streptococcus = experiment: Group A Streptococcus viability loss, dose response, counter-screen for streptokinase expression inhibitor project, luminescence, BacTiterGlo (AID 1915); type: functional, organism-based;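 note: potency for reduction of bacterial viability or growth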
Vero = experiment: cells; type: functional; conditions: Chlorocebus sabaeus
[18] = ZM109 Env clade C HIV-1 fusion inhibitors, dose response, HeLa effector, CEM target cells, luciferase, cherry-pick (AID 652058); type: functional, cell-based
Streptokinase A = target: T5, Streptokinase A (Streptococcus pyogenes serotype M1, UniProt P10520); experiment: S. pyogenes streptokinase expression inhibitors, potency, dose response, plasminogen activation absorbance, OD405 (AID 1914); type: functional, Streptococcus pyogenes M1 GAS;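 note: secreted streptokinase activity via plasminogen activation per viability signal from cell pellet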
T5 sequence (P10520 whole entry): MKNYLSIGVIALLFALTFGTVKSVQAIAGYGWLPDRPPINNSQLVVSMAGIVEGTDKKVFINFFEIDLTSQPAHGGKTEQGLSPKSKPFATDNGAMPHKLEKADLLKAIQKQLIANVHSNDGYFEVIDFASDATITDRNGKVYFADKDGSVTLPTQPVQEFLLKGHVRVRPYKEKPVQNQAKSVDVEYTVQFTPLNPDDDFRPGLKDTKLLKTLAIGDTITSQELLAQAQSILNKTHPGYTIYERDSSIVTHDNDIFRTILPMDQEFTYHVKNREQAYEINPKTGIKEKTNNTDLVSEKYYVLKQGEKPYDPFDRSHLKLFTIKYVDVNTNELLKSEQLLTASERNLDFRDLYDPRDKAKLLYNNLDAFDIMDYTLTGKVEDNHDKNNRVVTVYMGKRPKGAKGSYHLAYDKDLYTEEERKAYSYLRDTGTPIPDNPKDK

[19] = microbe, parasite or virus in culture; type: functional; conditions: Mycobacterium tuberculosis
[20] = P. falciparum Dd2 growth inhibitors, dose response, SYBR Green, cherry-picked samples (AID 1159567); type: functional, cell-based

CCCC(=O)N(CCN1CCOCC1)c1nc2c(C)cccc2s1
IC50 [1]: > 20 µM (inactive)

CCN(CC)S(=O)(=O)c1ccc(N/C=C2\C(=O)N(C)C(=O)C(C#N)=C2C)cc1
EC50 [2]: 32.7 µM (active) | EC50 [3]: 44.4 µM (active)

Cc1cc(N2CCOCC2)nc(NCc2ccccc2)n1
EC50 [4]: 5.68 µM (active)

N#CC1=C(N)N2C(=C(C#N)C1c1ccc(Br)cc1)Nc1ccccc12 (stereo not drawn)
EC50 (BJ [5]): 11.8 µM (inconclusive) | EC50 (BJ [6]): 62.4 µM (active) | EC50 (BJ [7]): > 150 µM (inconclusive) | EC50 [8]: 9.84 µM (active) | AC50 [9]: 794 nM (active) | AC50 (INS1): 3.56 µM (active)

O=C(NCC1OCCc2ccccc21)c1ccc(NC(=O)c2cccc(Br)c2)cc1 (stereo not drawn)
EC50 [10]: 25.2 µM (active) | EC50 [11]: 36.9 µM (active)

CCN(CC)c1ccc(N=Nc2nc[nH]n2)cc1
EC50 [2]: 73.4 µM (active) | EC50 [3]: > 300 µM (inconclusive)

O=[N+]([O-])c1ccc2nc(O)c(/C=C(\O)c3ccccc3)nc2c1
EC50 [2]: 20.1 µM (active) | EC50 [3]: > 300 µM (inconclusive)

CCOC(=O)c1sc2nc3n(c(=O)c2c1C)CCCCC3
EC50 [12]: 27.9 µM (active) | EC50 (H4): 101 µM (active)

O=C1Nc2cc(Cl)cnc2N2CCCC12 (stereo not drawn)
EC50 [2]: 16.8 µM (active) | EC50 [3]: 12.5 µM (active)

O=C(Nc1ccc(-c2nc3ccccc3c(=O)o2)cc1)c1ccco1
IC50 (cells): 0.84 µM (active)

CCC1(C)Cc2c(sc3nnn(CC(=O)Nc4cccc5ccccc45)c(=O)c23)CO1 (stereo not drawn)
EC50 [10]: 25.8 µM (active) | EC50 [11]: 23.9 µM (active)

COc1ccc(/C=C/c2nc(S(=O)(=O)c3ccccc3)c(NCCCN(C)C)o2)cc1OC
AC50 [13]: 14.6 µM (active)

Cc1cc(NC(=O)CSc2nc3c(c(=O)n2-c2ccc(Br)cc2)SCC3)no1
EC50 [11]: 155 µM (active)

Cc1cccc(-c2nc(C#N)c(NCC3CCCO3)o2)c1 (stereo not drawn)
EC50 [12]: 1.97 µM (active) | EC50 (H4): 36 µM (active)

COc1ccc(NC(=O)C(c2cc3c(cc2[N+](=O)[O-])OCO3)N(C)c2ccccc2)cc1 (stereo not drawn)
EC50 [4]: > 53 µM (inactive)

CCOC(=O)CC(=O)Nc1ccc(C(=O)OCC)cc1
IC50 (cells): 22.4 µM (active)

CCc1nc2sc3c(c2c(=O)n1NC(=O)CCl)CCCC3
CC50 [14]: 10.2 µM (active) | EC50 (BJ [5]): > 150 µM (not active) | EC50 (BJ [6]): > 150 µM (not active) | EC50 (BJ [7]): > 150 µM (not active) | EC50 [8]: > 150 µM (not active)

O=C1NC(=O)N(Cc2ccc(F)cc2)C(=O)/C1=C\c1ccc([N+](=O)[O-])s1
IC50 (cells): 24.7 µM (active)

COc1cc(/C=C/c2ccc3cccc(O)c3n2)c(Br)cc1O
EC50 [15]: 865 nM (active) | EC50 [16]: 3.92 µM (active) | EC50 [17]: > 60 µM (not active) | EC50 (Streptococcus): 2.68 µM (active) | CC50 (Vero): 8.46 µM (active)

CN(C)c1ccc(/C=C2\C(=N)N3N=C(CC(=O)N4CCCCC4)SC3=NC2=O)cc1
EC50 [4]: 6.36 µM (active)

O=C(NCC1CCCCC1)c1ccc(F)cc1Cl
EC50 [12]: 107 µM (active) | EC50 (H4): > 120 µM (not active)

Cc1ccsc1C1NC(=O)c2c(sc3c2CCN(C)C3)N1 (stereo not drawn)
EC50 [4]: > 53 µM (inactive)

Cc1cc(O)c(CN(C)C)c2c1C(=O)/C(=C/c1ccco1)O2
EC50 [2]: 32.1 µM (active) | EC50 [3]: 39.8 µM (active)

C=C[C@](C)(CC[C@@]1(C)C(C)CC(OC2OC(C)C(OC3OC(COC(C)=O)C(O)C(O)C3O)C(O)C2O)[C@@]2(C)C(C)=CCCC12)OC1OC(C)C(O[C@@H]2O[C@@H](C)C(O)C(O)[C@H]2O)C(O)C1O (stereo partly drawn)
IC50 [1]: > 20 µM (inactive)

NCCCC[C@@H](C(=O)N1CCNCC1)n1cc(CN)nn1
IC50 [1]: > 20 µM (inactive)

C=CCC[C@@H](Cc1ccc(F)cc1)C(=O)OC[C@H](Cc1c[nH]c2ccccc12)NC(=O)[C@@H](CC=C)CC(=O)NCCO
EC50 [4]: 11.4 µM (active)

COC(=O)C1CCN(C(=O)COC(=O)c2cc(S(=O)(=O)N3CCOCC3)ccc2C)CC1
AC50 [18]: 17.5 µM (active) | AC50 [13]: 45.6 µM (active)

C/C(=N\NC(=O)CSCc1ccc([N+](=O)[O-])cc1)c1ccccc1O
IC50 [1]: > 20 µM (inactive)

CC1=CC(C)(C)n2c(O)c(/N=N/C(=N)S)c3cc(C)cc1c32
IC50 [1]: > 20 µM (inactive)

C/C(=N\NC(=O)c1cc([N+](=O)[O-])cc([N+](=O)[O-])c1)c1ccco1
EC50 [16]: 0.768 µM (active) | EC50 [17]: > 60 µM (not active) | IC50 (cells): 3.35 µM (active)

Oc1ccc(Br)cc1/C=N/Nc1nc(N2CCCCC2)nc(N2CCOCC2)n1
EC50 [15]: 3480 nM (active) | EC50 (Streptokinase A): 33.6 µM (active) | EC50 [16]: 1.91 µM (active) | CC50 [19]: > 40 µM (active) | EC50 [17]: > 60 µM (not active) | EC50 (Streptococcus): 24.7 µM (active)

Cc1ccccc1S(=O)(=O)N1[C@H](C#N)[C@H](c2ccc(C#CC3CCCC3)cc2)[C@@H]1CO
AC50 [20]: 5.11 µM (active)
